Data reported in ChEMBL document CHEMBL5154800, “Identification of N, C-capped di- and tripeptides as selective immunoproteasome inhibitors” (Eur J Med Chem, 2022).
pIC50: −log10 of the molar value. Active and inactive are the calls of the source. The calls are words filed in the database; no cut-off is given here.

Test system: THP-1
Test: Antiinflammatory activity against LPS-stimulated human THP-1 cells assessed inhibition of TNF-alpha release at 40 uM measured by ELISA
Type: functional, cell-based
Conditions: not given

Compound | Activity
CCC(=O)NCCC(=O)N[C@@H](CCC(=O)NC(C)(C)C)C(=O)N[C@@H](Cc1ccccc1)C(=O)NCc1cccc2ccccc12 | Active
CC(C)(C)NC(=O)CC[C@H](NC(=O)CCNC(=O)CCl)C(=O)N[C@@H](Cc1ccc2ccccc2c1)C(=O)NCc1cccc2ccccc12 | Active
COc1ccc(C[C@H](NC(=O)[C@H](CCC(=O)NC(C)(C)C)NC(=O)CCNC(=O)CCl)C(=O)NCc2ccc(C)cc2)cc1 | Active
CC(C)(C)NC(=O)CC[C@H](NC(=O)CCNC(=O)/C(C#N)=C/c1ccc(Cl)cc1)C(=O)N[C@@H](Cc1ccccc1)C(=O)NCc1cccc2ccccc12 | Active

Test system: MCF7
Test: Antiproliferative activity against human MCF7 cells assessed as growth inhibition at 0.2 uM measured after 72 hrs by MTT assay
Type: functional
Conditions: read-out: GI

Compound | inhibition of growth at 0.2 µM
CCC(=O)NCCC(=O)N[C@@H](CCC(=O)NC(C)(C)C)C(=O)N[C@@H](Cc1ccccc1)C(=O)NCc1cccc2ccccc12 | < 20%
CC(C)(C)NC(=O)CC[C@H](NC(=O)CCNC(=O)CCl)C(=O)N[C@@H](Cc1ccc2ccccc2c1)C(=O)NCc1cccc2ccccc12 | 25%
COc1ccc(C[C@H](NC(=O)[C@H](CCC(=O)NC(C)(C)C)NC(=O)CCNC(=O)CCl)C(=O)NCc2ccc(C)cc2)cc1 | < 20%
CC(C)(C)NC(=O)CC[C@H](NC(=O)CCNC(=O)/C(C#N)=C/c1ccc(Cl)cc1)C(=O)N[C@@H](Cc1ccccc1)C(=O)NCc1cccc2ccccc12 | < 20%

Test system: THP-1
Test: Antiinflammatory activity against LPS-stimulated human THP-1 cells assessed inhibition of IL-6 release at 40 uM measured by ELISA
Type: functional, cell-based
Conditions: not given

Compound | Activity
CCC(=O)NCCC(=O)N[C@@H](CCC(=O)NC(C)(C)C)C(=O)N[C@@H](Cc1ccccc1)C(=O)NCc1cccc2ccccc12 | Active
CC(C)(C)NC(=O)CC[C@H](NC(=O)CCNC(=O)CCl)C(=O)N[C@@H](Cc1ccc2ccccc2c1)C(=O)NCc1cccc2ccccc12 | Active
COc1ccc(C[C@H](NC(=O)[C@H](CCC(=O)NC(C)(C)C)NC(=O)CCNC(=O)CCl)C(=O)NCc2ccc(C)cc2)cc1 | Active
CC(C)(C)NC(=O)CC[C@H](NC(=O)CCNC(=O)/C(C#N)=C/c1ccc(Cl)cc1)C(=O)N[C@@H](Cc1ccccc1)C(=O)NCc1cccc2ccccc12 | Active

Test system: not listed separately
Test: Selectivity ratio of IC50 for inhibition of 20S proteasome beta 5c subunit (unknown origin) to IC50 for inhibition of 20S proteasome subunit beta-5i
Conditions: not given

Compound | Ratio IC50
CCC(=O)NCCC(=O)N[C@@H](CCC(=O)NC(C)(C)C)C(=O)N[C@@H](Cc1ccccc1)C(=O)NCc1cccc2ccccc12 | 274
CC(C)(C)NC(=O)CC[C@H](NC(=O)CCNC(=O)CCl)C(=O)N[C@@H](Cc1ccc2ccccc2c1)C(=O)NCc1cccc2ccccc12 | 535
COc1ccc(C[C@H](NC(=O)[C@H](CCC(=O)NC(C)(C)C)NC(=O)CCNC(=O)CCl)C(=O)NCc2ccc(C)cc2)cc1 | 36
CC(C)(C)NC(=O)CC[C@H](NC(=O)CCNC(=O)/C(C#N)=C/c1ccc(Cl)cc1)C(=O)N[C@@H](Cc1ccccc1)C(=O)NCc1cccc2ccccc12 | 124

Test system: Pfeiffer
Test: Antiproliferative activity against human Pfeiffer cells assessed as growth inhibition at 0.2 uM measured after 72 hrs by MTT assay
Type: functional
Conditions: read-out: GI

Compound | inhibition of growth at 0.2 µM
CCC(=O)NCCC(=O)N[C@@H](CCC(=O)NC(C)(C)C)C(=O)N[C@@H](Cc1ccccc1)C(=O)NCc1cccc2ccccc12 | < 20%
CC(C)(C)NC(=O)CC[C@H](NC(=O)CCNC(=O)CCl)C(=O)N[C@@H](Cc1ccc2ccccc2c1)C(=O)NCc1cccc2ccccc12 | < 20%
COc1ccc(C[C@H](NC(=O)[C@H](CCC(=O)NC(C)(C)C)NC(=O)CCNC(=O)CCl)C(=O)NCc2ccc(C)cc2)cc1 | 28%
CC(C)(C)NC(=O)CC[C@H](NC(=O)CCNC(=O)/C(C#N)=C/c1ccc(Cl)cc1)C(=O)N[C@@H](Cc1ccccc1)C(=O)NCc1cccc2ccccc12 | 32%

Test system: DOHH-2
Test: Antiproliferative activity against human DOHH-2 cells assessed as growth inhibition at 0.2 uM measured after 72 hrs by MTT assay
Type: functional
Conditions: read-out: GI

Compound | inhibition of growth at 0.2 µM
CCC(=O)NCCC(=O)N[C@@H](CCC(=O)NC(C)(C)C)C(=O)N[C@@H](Cc1ccccc1)C(=O)NCc1cccc2ccccc12 | < 20%
CC(C)(C)NC(=O)CC[C@H](NC(=O)CCNC(=O)CCl)C(=O)N[C@@H](Cc1ccc2ccccc2c1)C(=O)NCc1cccc2ccccc12 | < 20%
COc1ccc(C[C@H](NC(=O)[C@H](CCC(=O)NC(C)(C)C)NC(=O)CCNC(=O)CCl)C(=O)NCc2ccc(C)cc2)cc1 | < 20%
CC(C)(C)NC(=O)CC[C@H](NC(=O)CCNC(=O)/C(C#N)=C/c1ccc(Cl)cc1)C(=O)N[C@@H](Cc1ccccc1)C(=O)NCc1cccc2ccccc12 | 34%

Test system: HT-29
Test: Antiproliferative activity against human HT-29 cells assessed as growth inhibition at 0.2 uM measured after 72 hrs by MTT assay
Type: functional
Conditions: read-out: GI

Compound | inhibition of growth at 0.2 µM
CCC(=O)NCCC(=O)N[C@@H](CCC(=O)NC(C)(C)C)C(=O)N[C@@H](Cc1ccccc1)C(=O)NCc1cccc2ccccc12 | < 20%
CC(C)(C)NC(=O)CC[C@H](NC(=O)CCNC(=O)CCl)C(=O)N[C@@H](Cc1ccc2ccccc2c1)C(=O)NCc1cccc2ccccc12 | < 20%
COc1ccc(C[C@H](NC(=O)[C@H](CCC(=O)NC(C)(C)C)NC(=O)CCNC(=O)CCl)C(=O)NCc2ccc(C)cc2)cc1 | < 20%
CC(C)(C)NC(=O)CC[C@H](NC(=O)CCNC(=O)/C(C#N)=C/c1ccc(Cl)cc1)C(=O)N[C@@H](Cc1ccccc1)C(=O)NCc1cccc2ccccc12 | < 20%

Target: T1, Proteasome subunit beta type-10 (Homo sapiens, UniProt P40306)
T1 sequence (P40306 whole entry): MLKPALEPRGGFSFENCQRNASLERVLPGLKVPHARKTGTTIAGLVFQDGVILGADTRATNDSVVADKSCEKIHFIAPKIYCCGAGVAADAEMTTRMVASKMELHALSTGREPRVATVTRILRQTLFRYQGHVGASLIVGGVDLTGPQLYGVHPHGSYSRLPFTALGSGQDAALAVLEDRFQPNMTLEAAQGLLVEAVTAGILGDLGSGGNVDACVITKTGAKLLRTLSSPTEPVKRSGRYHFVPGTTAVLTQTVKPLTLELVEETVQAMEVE
Test: Inhibition of 20S proteasome subunit beta-2i (unknown origin) using Ac-KQL-AMC as substrate and measured after 30 mins
Conditions: not given

Compound | pIC50
CC(C)(C)NC(=O)CC[C@H](NC(=O)CCNC(=O)CCl)C(=O)N[C@@H](Cc1ccc2ccccc2c1)C(=O)NCc1cccc2ccccc12 | < 4.40

Test system: HCT-116
Test: Antiproliferative activity against human HCT-116 cells assessed as growth inhibition at 0.2 uM measured after 72 hrs by MTT assay
Type: functional
Conditions: read-out: GI

Compound | inhibition of growth at 0.2 µM
CCC(=O)NCCC(=O)N[C@@H](CCC(=O)NC(C)(C)C)C(=O)N[C@@H](Cc1ccccc1)C(=O)NCc1cccc2ccccc12 | < 20%
CC(C)(C)NC(=O)CC[C@H](NC(=O)CCNC(=O)CCl)C(=O)N[C@@H](Cc1ccc2ccccc2c1)C(=O)NCc1cccc2ccccc12 | 21%
COc1ccc(C[C@H](NC(=O)[C@H](CCC(=O)NC(C)(C)C)NC(=O)CCNC(=O)CCl)C(=O)NCc2ccc(C)cc2)cc1 | 29%
CC(C)(C)NC(=O)CC[C@H](NC(=O)CCNC(=O)/C(C#N)=C/c1ccc(Cl)cc1)C(=O)N[C@@H](Cc1ccccc1)C(=O)NCc1cccc2ccccc12 | 26%

Target: T2, Proteasome subunit beta type-9 (Homo sapiens, UniProt P28065)
T2 sequence (P28065 whole entry): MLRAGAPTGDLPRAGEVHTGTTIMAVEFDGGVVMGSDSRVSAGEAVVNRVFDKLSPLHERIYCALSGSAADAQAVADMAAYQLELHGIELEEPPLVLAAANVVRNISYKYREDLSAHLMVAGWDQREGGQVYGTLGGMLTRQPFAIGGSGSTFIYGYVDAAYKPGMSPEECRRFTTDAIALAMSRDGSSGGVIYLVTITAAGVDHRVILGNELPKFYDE
Test: Inhibition of 20S proteasome subunit beta-1i (unknown origin) using Ac-PAL-AMC as substrate and measured after 30 mins
Conditions: not given

Compound | pIC50
CC(C)(C)NC(=O)CC[C@H](NC(=O)CCNC(=O)CCl)C(=O)N[C@@H](Cc1ccc2ccccc2c1)C(=O)NCc1cccc2ccccc12 | < 4.40
